Target: High affinity nerve growth factor receptor (Homo sapiens, UniProt P04629)
Assay: TrkA Receptor : TrkA functional activity was measured using a DiscoverX PathHunter assay. In this assay, U2OS cells are express TrkA receptor as a fusion with the weakly complementing fragment of B-galactosidase, which DiscoverX calls “Prolink (PK)”; additionally, Shc1 is fused with a larger fragment, which is called “Enzyme Acceptor (EA)”. Activation of the TrkA receptor, upon NGF addition, results in the kinase domain being phosphorylated, resulting in subsequent recruitment of Shc1-EA protein. That recruitment results in an active B-galactosidase enzyme that is detected by addition of a chemiluminescent substrate.All reagents were purchased from DiscoverX, except for the receptor agonists (NGF, BDNF, NT3) which were purchased from Peprotech. Cells were expanded and frozen into cryovials (TrkA p75 @ passage 13, 1.5×10^7 cells/vial; TrkC p75 @ passage 11, 1.5×10^7 cells/vial in InVitrogen Recovery Cell Freezing media), and stored in the vapor phase of liquid nitrogen, and thawed immediately before use. Thawed cells were added to a 384-well plate (BD Falcon 384-well white/clear, TC surface 120 uL assay plates (353963), 20 uL of 0.375e6 cells/mL=>7500 cells/well), and allowed to incubate overnight. […]

Sequence of High affinity nerve growth factor receptor (P04629 whole entry, the tested form may be a part): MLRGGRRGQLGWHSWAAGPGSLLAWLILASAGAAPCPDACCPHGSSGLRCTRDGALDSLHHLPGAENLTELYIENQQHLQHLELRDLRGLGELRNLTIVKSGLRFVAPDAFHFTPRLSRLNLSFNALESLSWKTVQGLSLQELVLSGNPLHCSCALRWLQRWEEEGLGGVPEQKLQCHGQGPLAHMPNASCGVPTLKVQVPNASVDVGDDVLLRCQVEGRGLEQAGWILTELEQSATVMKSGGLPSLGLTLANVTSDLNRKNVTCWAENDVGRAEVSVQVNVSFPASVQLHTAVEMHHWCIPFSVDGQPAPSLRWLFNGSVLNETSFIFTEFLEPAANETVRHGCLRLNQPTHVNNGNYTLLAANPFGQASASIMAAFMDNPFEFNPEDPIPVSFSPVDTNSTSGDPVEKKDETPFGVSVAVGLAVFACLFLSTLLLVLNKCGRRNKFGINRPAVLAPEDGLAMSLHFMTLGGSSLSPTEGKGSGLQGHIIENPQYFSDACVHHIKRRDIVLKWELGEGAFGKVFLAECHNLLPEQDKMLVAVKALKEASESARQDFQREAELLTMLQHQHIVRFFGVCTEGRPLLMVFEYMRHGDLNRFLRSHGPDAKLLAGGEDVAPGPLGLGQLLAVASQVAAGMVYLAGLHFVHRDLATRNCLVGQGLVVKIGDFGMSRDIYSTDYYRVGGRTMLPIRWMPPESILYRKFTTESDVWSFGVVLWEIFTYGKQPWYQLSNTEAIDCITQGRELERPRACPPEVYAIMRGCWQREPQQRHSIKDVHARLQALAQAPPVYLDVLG

SMILES: Cc1ncc(NC(=O)Nc2c(-c3ccccc3)[nH]c3ccccc23)c(-c2ccccc2)n1
- IC50: 570 nM

From ChEMBL document CHEMBL5726785, “TrkA kinase inhibitors, compositions and methods thereof” (2018)
